Data from patent US12691124B2, “Methods of controlling and improving brain health” (ICAHN SCHOOL OF MEDICINE AT MOUNT SINAI, priority 2019, dated 2026).

Tested on: primary cortical neurons
Assay: Seahorse mitochondrial stress test
Format: cell-based, mouse
Experimental: Seahorse Mitochondrial Stress Test. In this assay, two fluorescent probes that detect the concentration of oxygen or protons are added to the culture media. Cellular metabolism causes rapid changes in the concentration of these molecules in the media which can be detected by changes in sensor fluorescence. The oxygen consumption rate (OCR) indicates mitochondrial respiration and the extracellular acidification rate (ECAR) is largely due to glycolysis. Certain pathways can be analyzed by the sequential addition of inhibitors to the media and measuring ensuing changes to the OCR and ECAR. First baseline readings are measured to give an understanding of basal metabolic rates. Then the last step of oxidative phosphorylation, the ATP synthase, is inhibited by oligomycin to determine how much oxygen is being used for ATP production. FCCP is next added to decouple the electron transport chain from the ATP synthase by increasing proton permeability of the membrane which drives oxidative phosphorylation to its maximum. Lastly, complex I is inhibited by rotenone to completely shut down mitochondrial respiration. Any oxygen that is consumed after rotenone is due to other cellular processes such as fatty acid metabolism. On the day of the assay, cultures were washed times with artificial CSF (aCSF) [120 mM NaCl, 3.5 mM KCl, 1.3 mM CaCl2, 1 mM MgCl2, 0.4 mM KH2PO4, 5 mM HEPES, 0.4% BSA, 10 mM Sodium-pyruvate, 15 mM Glucose], and incubated at 37° C. without CO2 for one hour prior to assay. Oxygen Consumption rate (OCR) was measured using the Seahorse XFe24 Analyzer (Agilent), under basal conditions and after the sequential addition of […] [carbonyl cyanide p-(trifluoromethoxy) phenylhydrazone], […]. Metrics were calculated according to the following equations. All values were calculated per well and normalized to cell number for each experiment. Each experiment was normalized to the average of all controls across all experiments (n=3) performed.
To understand if this was the case, the major energetic pathway in neurons, mitochondrial respiration, after BET inhibition was assessed using Seahorse technology. […] In addition to lower mitochondrial activity, proton leak which contributes to the production of reactive oxygen species (ROS) is lower after BET inhibition. Because increased ROS levels are detrimental to neuronal health, lower ROS production could also increase neuronal survival after BET inhibition.
Glycolysis also contributes to neuronal metabolism and several key glycolytic metabolites (Fructose 6-phosphate, Glucose-6-phosphate, Phosphoenolpyruvate) were decreased after IBET858. […] Additionally, the decreased maximal responses indicate that this metabolic state is relatively stable.

For `CC(=O)N1c2ccc(-c3ccc(CN4CCCCC4)cc3)cc2[C@H](Nc2ccccc2)CC1C` (stereo in doubt) [IBET858], the mitochondrial coupling efficiency (24 h or 1 week IBET858) was “increased coupling efficiency”, the “basal glycolysis (extracellular acidification rate)” value (chronic BET inhibition) was “slightly decreased” and the “basal mitochondrial respiration rates” value (chronic BET inhibition) was “significantly decreases”. The “decrease in ATP production” value (chronic BET inhibition) was 50%, the maximum glycolytic rate (chronic BET inhibition) was “significantly attenuated” and the maximum mitochondrial activity (chronic BET inhibition) was “also decreased”. The proton leak (chronic BET inhibition) was “lower”.
